These results are taken from PubChem BioAssay (NCI).

Values joined by “and” are separate entries in the source; they are usually repeats but may differ in a detail not shown here. Equal values may be shown once.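 Values below derive from 48-hour exposures of cells grown in 96-well plates, with endpoints linearly interpolated between the two concentrations bracketing the appropriate inhibition level. GI50 marks 50% less growth. The concentration for full growth arrest is given as TGI.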 Bounds are passed on as bounds.

Among the test systems are SN12C renal; SR leukemia; A498 renal; OVCAR-3 ovarian; MALME-3M melanoma; UO-31 renal; KM12 colon; HCT-116 colon; HCC-2998 colon; RPMI-8226 leukemia.
Assay in all cases: NCI tumour cell line growth inhibition, 48 h

Regarding `C=C1c2ccoc2C[C@H]2[C@H]1CC[C@@]1(O)[C@@](C)(C(=O)OC)CCC[C@]21C`, the GI50 was 16.9 µM with SN12C renal; 13.1 µM with SR leukemia; 21.9 µM in the assay with A498 renal; 17.4 µM in the assay on OVCAR-3 ovarian; 22.1 µM with MALME-3M melanoma; 33.9 µM with UO-31 renal. In addition, the GI50 in the assay on KM12 colon was 25.6 µM; in the assay with HCT-116 colon, 15.7 µM; in the assay on HCC-2998 colon it was 29.4 µM; in the assay on RPMI-8226 leukemia it was 21.5 µM. The TGI in the assay with SN12C renal is 34 µM; in the assay on SR leukemia, 31.6 µM; in the assay with A498 renal, 40.8 µM; in the assay on OVCAR-3 ovarian, 43.3 µM; in the assay on MALME-3M melanoma it was 56.2 µM; with UO-31 renal, above 100 µM. For the same compound, the TGI amounted to 89.7 µM with KM12 colon, 31.2 µM with HCT-116 colon, 71 µM in the assay with HCC-2998 colon and 54 µM in the assay with RPMI-8226 leukemia.

Regarding `CN(C)c1ccc(C(=NO)c2ccc(N(C)C)cc2)cc1`, the GI50 in the assay with SN12C renal was 4.94 µM; with SR leukemia, 0.32 µM; in the assay with A498 renal, 2.57 µM; with OVCAR-3 ovarian, 2.22 µM; in the assay on MALME-3M melanoma it was 2.63 µM; in the assay with UO-31 renal, 4.73 µM. Further, the GI50 with KM12 colon is 1.28 µM; in the assay on HCT-116 colon, 2.53 µM; with HCC-2998 colon it was 8.06 µM; with RPMI-8226 leukemia, 2.04 µM. The TGI in the assay with SN12C renal was above 100 µM; in the assay on SR leukemia, above 100 µM; with A498 renal, above 100 µM; in the assay on OVCAR-3 ovarian it was 10.1 µM; in the assay on MALME-3M melanoma, above 100 µM; in the assay on UO-31 renal it was above 100 µM. The TGI is above 100 µM in the assay with KM12 colon, above 100 µM in the assay with HCT-116 colon, above 100 µM in the assay with HCC-2998 colon and 7.94 µM with RPMI-8226 leukemia.

In the case of `O1[As]2O[As]3O[As]1O[As](O2)O3`, the GI50 in the assay with SN12C renal is 0.881 µM; in the assay on SR leukemia, 0.295 µM; in the assay on A498 renal, 0.0875 µM; in the assay on OVCAR-3 ovarian it was 0.283 µM; in the assay with MALME-3M melanoma, 0.477 µM; with UO-31 renal, 1.22 µM. The GI50 in the assay with KM12 colon is 3.31 µM; in the assay on HCT-116 colon it was 1.27 µM; in the assay on HCC-2998 colon it was 1.65 µM; in the assay on RPMI-8226 leukemia it was 0.29 µM. In addition, the TGI in the assay on SN12C renal amounted to 4.79 µM; with SR leukemia, 3.7 µM; in the assay with A498 renal, 0.352 µM; in the assay with OVCAR-3 ovarian, 0.72 µM; in the assay with MALME-3M melanoma, 2.08 µM; in the assay on UO-31 renal it was 2.84 µM. In addition, the TGI turned out to be 13.9 µM in the assay with KM12 colon, 2.8 µM in the assay on HCT-116 colon, 3.6 µM in the assay with HCC-2998 colon and 2.89 µM in the assay with RPMI-8226 leukemia.

Consider `Cc1ccc(-c2nc3nc(-c4ccccc4)nc(N4CCNCC4)c3o2)cc1`, for which the GI50 with SN12C renal was 0.849 µM; with SR leukemia, 0.223 µM; in the assay on A498 renal, 1.47 µM; in the assay on OVCAR-3 ovarian, 0.187 µM; in the assay with MALME-3M melanoma, 1.81 µM; in the assay on UO-31 renal it was 0.513 µM. The GI50 is 0.345 µM with KM12 colon, 0.185 µM in the assay on HCT-116 colon, 1.4 µM with HCC-2998 colon and 0.232 µM in the assay with RPMI-8226 leukemia. Also, the TGI with SN12C renal amounted to 2.31 µM; in the assay with SR leukemia, 0.611 µM; in the assay on A498 renal, 2.97 µM; in the assay on OVCAR-3 ovarian, 0.352 µM; in the assay on MALME-3M melanoma, 3.59 µM; with UO-31 renal it was 1.01 µM. In addition, the TGI with KM12 colon was 1.36 µM; with HCT-116 colon, 0.337 µM; in the assay with HCC-2998 colon it was 2.86 µM; with RPMI-8226 leukemia, 0.571 µM.

Take `NC(=O)Nc1cc(-c2cccc(F)c2)sc1C(=O)N[C@H]1CCCNC1`: the GI50 is 0.0889 µM and 0.218 µM in the assay with SN12C renal; 0.0312 µM and 0.14 µM with SR leukemia; 0.0173 µM and 0.0385 µM in the assay on A498 renal; 0.168 µM and 0.55 µM in the assay on OVCAR-3 ovarian; 0.232 µM and 0.729 µM in the assay with MALME-3M melanoma; 0.213 µM and 0.304 µM with UO-31 renal. In addition, the GI50 is 0.00626 µM and 0.0351 µM in the assay with KM12 colon; 0.327 µM and 0.428 µM in the assay on HCT-116 colon; 0.117 µM and 0.273 µM in the assay with HCC-2998 colon; 0.66 µM and 0.482 µM in the assay with RPMI-8226 leukemia. Moreover, the TGI in the assay on SN12C renal is 3.28 µM and 3.27 µM; in the assay with A498 renal, 0.0984 µM and 0.194 µM; with OVCAR-3 ovarian, 4.56 µM and 5.17 µM; in the assay with MALME-3M melanoma it was 4.95 µM and 6.8 µM; with UO-31 renal, 1.79 µM and 1.29 µM; in the assay on KM12 colon, 6.38 µM and 3.3 µM. In addition, the TGI was 6.14 µM and 2.85 µM in the assay on HCT-116 colon; 1.4 µM and 2.64 µM in the assay on HCC-2998 colon; > 8.22 µM and 6.11 µM in the assay with RPMI-8226 leukemia.

Take `CN(C)CC1CCC2=C(C1=O)C(c1ccc(Cl)c(Cl)c1)C1=C(CCC(CN(C)C)C1=O)O2` (centres undefined): the GI50 was 14 µM with SN12C renal; 1.44 µM with SR leukemia; 14.3 µM with A498 renal; 1.6 µM in the assay on OVCAR-3 ovarian; 14.9 µM in the assay with MALME-3M melanoma; 2.78 µM in the assay on UO-31 renal. Moreover, the GI50 is 2.58 µM in the assay with KM12 colon, 10.4 µM in the assay with HCT-116 colon, 0.0835 µM in the assay with HCC-2998 colon and 0.389 µM in the assay on RPMI-8226 leukemia. The TGI came to 30.2 µM with SN12C renal; 5.37 µM with SR leukemia; 27.4 µM in the assay on A498 renal; 5.89 µM in the assay with OVCAR-3 ovarian; 29.5 µM with MALME-3M melanoma; 7.17 µM in the assay with UO-31 renal. In addition, the TGI in the assay with KM12 colon is 8.85 µM; in the assay with HCT-116 colon, 23.4 µM; in the assay on HCC-2998 colon it was 14.6 µM; in the assay with RPMI-8226 leukemia, 4.36 µM.

Take `COc1ccc(Cl)c(Nc2nc3ccccc3nc2NS(=O)(=O)c2cccc(NC(=O)C(C)(C)N)c2)c1`: the GI50 is 9.79 µM and > 10 µM in the assay on SN12C renal; 10.2 µM and > 10 µM with SR leukemia; 3.1 µM and 3.23 µM in the assay on A498 renal; 7.68 µM and 4.12 µM in the assay on OVCAR-3 ovarian; 10.2 µM and > 10 µM with MALME-3M melanoma; 1.9 µM and 2.03 µM with UO-31 renal. Moreover, the GI50 with KM12 colon was 12 µM and > 10 µM; in the assay with HCT-116 colon it was 12.8 µM and > 10 µM; with HCC-2998 colon, 13 µM and 5.73 µM; with RPMI-8226 leukemia, 13.4 µM and > 10 µM. Moreover, the TGI is 22.3 µM and > 10 µM with SN12C renal; 28.1 µM and > 10 µM in the assay with SR leukemia; 13.6 µM and > 10 µM in the assay with A498 renal; 21.3 µM and > 10 µM in the assay with OVCAR-3 ovarian; 24.9 µM and > 10 µM with MALME-3M melanoma; 13.5 µM and > 10 µM with UO-31 renal. Further, the TGI in the assay with KM12 colon was 30.9 µM and > 10 µM; in the assay on HCT-116 colon it was 25.8 µM and > 10 µM; with HCC-2998 colon it was 26.6 µM and > 10 µM; in the assay with RPMI-8226 leukemia, 52.8 µM and > 10 µM.
